Source: patent publication US10420733B2, “Transdermal delivery system containing methylphenidate or its salts and methods thereof” (TAHO Pharmaceuticals Ltd., priority 2016, dated 2019)

Assay: Maximum amount of methylphenidate dissolved in various adhesives
Type: physicochemical
Description: Various adhesives were tested to determine the maximum amount of methylphenidate could be dissolved.

COC(=O)C(c1ccccc1)C1CCCCN1 (stereo not shown) [methylphenidate, a-phenyl-2-piperidineacetic acid methyl ester]
solubility in Duro Tak 87-6911: highly soluble
